What was measured:
[1] = tested on: human umbilical vein endothelial cells (HUVEC); experiment: Uptake of fluorophore-labeled milk exosomes into HUVECs; assay type: cell-based; settings: for effect on exosome uptake in HUVEC cells: inhibitors or 150 mmol/L carbohydrate competitors
[2] = tested on: human small intestinal cells (FHs cells); experiment: Uptake of milk exosomes into FH cells (protease, glycosidase, lectin, sonication); assay type: cell-based
[3] = tested on: human colon carcinoma Caco-2 cells; assay type: cell-based
Method: Caco-2 cells and IEC-6 cells were seeded at a density of 20,000 and 7000 cells/well, respectively, in 96-well plates, and allowed to adhere for 48 h, when cells were 75% confluent. The exosomes were labeled with the fluorophore, FM 4-64 (Molecular Probes). One microliter of a stock solution of FM 4-64 (5.9 mmol/L) was added to 1 mL of exosome suspension and incubated for 15 min at 37° C., and excess FM 4-64 was removed by ultracentrifugation at 120,000 3 g at 4° C. for 90 min. […] Assays were calibrated by quantifying the fluorescence of a known mass of exosomes labeled with FM 4-64. Exosome uptake was analyzed by measuring the cell fluorescence at 515 (excitation) and 640 nm (emission) using a Biotek FLx800 plate reader (BioTek Instru-ments). Fluorescence readings were corrected for cell autofluorescence by subtracting signals measured in cells incubated with exosome-depleted media. […] In Caco-2 cells, exosome uptake was linear for up to 120 min if transport was measured using nonsaturating substrate concentrations (FIG. 33A): y=0.0012x+0.014 (r2=0.97; P<0.05). In IEC-6 cells exosome uptake was linear for only up to 60 min if transport was measured using nonsaturating substrate concentrations (FIG. 33B): y=0.0033x+0.033 (r2=0.75; P<0.05). […]

HUVEC = experiment: Cell death (MTT viability) assay with puromycin-loaded exosomes; assay type: cell-based, human; settings: 1,837 μM puromycin added directly to media, 24 h
Method: The possibility that adherence to cells, rather than uptake into cells, accounted for cell fluorescence was dismissed based on the following cell death-based and enhanced green fluorescent protein (eGFP) protocols. Milk exosomes were suspended in BTXpress electroporation buffer (BTX, Holliston, MA; final concentration 100 […]), containing zero (negative control), 56 μM, or 223 μM puromycin in a 4-mm electroporation cuvette. Exosomes were loaded with puromycin or with a mammalian eGFP expression plasmid by electroporation in a Gene Pulser Xcell electroporator (Bio-Rad) using 250 V, 950 μF, and infinite resistance. Extra-exosomal puromycin was removed by ultracentrifugation and washing, and exosomes were resuspended in 300 μl of exosome-depleted cell culture media. In cell death assays, 100 μl of the suspension were added per well in a 96-well cell culture plate (containing ˜200 μl of media) and cells were cultured for 24 h, when viability was assessed using the MTT assay. Positive controls were created by adding puromycin directly to the media without encapsulation in exosomes, thereby producing a concentration of 1,837 μM puromycin. In eGFP assays, cells were cultured in media in which eGFP-loaded milk exosomes were substituted for exosomes in fetal bovine serum. Expression of eGFP was assessed by using confocal microscopy 3 days after initiation of cultures.

Caco-2 cells = assay type: in vitro ADME, human
Method: In transwell studies Caco-2 cells were seeded at a density of 9000 cells/well with […] of media in 96-well polycarbonate plates with a pore size of […] (EMD Millipore). The cells were allowed to grow a differentiated monolayer for 21-24 d (33). Caco-2 cell monolayer integrity was formally confirmed using the Lucifer yellow (LY) rejection assay according to the manufacturer's instructions (33). LY fluorescence was measured in the transwell apical and basolateral chambers after 1 h of incubation at 37° C. In parallel experiments, Caco-2 cells were cultured in exosome-depleted media to which milk exosomes were added back to produce a concentration of 275 mg/100 mL exosomal protein in either the upper, apical chamber or the lower, basolateral chamber. Controls were cultured in exosome-depleted media. Aliquots of media were collected from the upper chamber and bottom chamber after 2 h of incubation for analysis of microRNAs. Twenty-five attomoles of internal standard (miSPIKE Synthetic RNA; IDT Technologies) was added to samples before microRNA extraction and subsequent analysis of miR-29b and miR-200c in transwell chambers by quantitative real-time PCR and microRNA-specific primers; miSpike was also used for PCR calibration. Values were corrected for the internal standard to normalize for extraction efficiency.

[4] = tested on: human macrophage U937 cells; experiment: Uptake of milk exosomes into U937 cells; assay type: cell-based; settings: exosomes treated with the labelled agent
[5] = FH cells treated with the labelled agent
[6] = exosomes treated with the labelled agent

Compound	effect on exosome uptake in HUVEC cells [1]	effect on exosome uptake in FH cells [2, 5]	effect on exosome uptake in FH cells [2, 6]	also measured
O=C[C@H](O)[C@@H](O)[C@@H](O)[C@H](O)CO [D-galactose]	significant decrease in exosome uptake	–	–	–
SBA: Lectin binding terminal N-acetylgalactosamine and galactopyranosyl residues	–	decreases the uptake	decreases the uptake	–
PHA-E: Lectin binding terminal galactose, N-acetylglucosamine and mannose residues of complex glycans	–	decreases the uptake	decreases the uptake	–
Glu-C: Serine protease cleaving at glutamic acid and aspartic acid	–	–	–	effect on exosome uptake in Caco-2 cells ([3]; Caco-2): significant decrease in exosome transport; transport rates (Vmax) ([3]; exosomes treated with the labelled protease, intestinal transport): 19±0.3 arbitrary units
COc1ccc(C[C@H](N)C(=O)N[C@H]2[C@@H](O)[C@H](n3cnc4c(N(C)C)ncnc43)O[C@@H]2CO)cc1 [puromycin]	–	–	–	viability (HUVEC): 37 % of puromycin-free controls
C=C1[C@@H](C)[C@H]2[C@H](Cc3ccccc3)NC(=O)[C@]23[C@H](OC(C)=O)/C=C/[C@@](C)(O)C(=O)[C@@H](C)C/C=C/[C@H]3[C@@H]1O [cytochalasin D]	decrease in exosome uptake	–	–	decrease of exosome transport compared with controls ([1]; HUVEC, exosomes treated with proteinase K, or transport in presence of the labelled agent): 50%; exosome uptake ([1]; cells treated with 5 μg/ml cytochalasin D): 63.5±21.3 % of controls; exosome uptake ([1]; cells treated with 10 μg/ml cytochalasin D): 40.8±22.0 % of controls
C[C@H]1CCC/C=C/[C@@H]2C[C@H](O)C[C@H]2[C@H](O)/C=C/C(=O)O1 [BFA, brefeldin A]	decrease in exosome uptake	–	–	–
Lucifer yellow	–	–	–	rejection rate (Caco-2 cells): 99.8%
β-galactosidase	–	decrease in exosome uptake	decrease in exosome uptake	effect on exosome uptake in U937 cells [4]: decrease in exosome uptake

— patent US11883434B2, “Extracellular vesicles and methods of using” (NUtech Ventures, priority 2017, dated 2024)
